# Like-named read-outs stand apart in the source and are kept apart here.
# Key:
# [1] = Study 2: phase 1 open-label crossover DDI study, plasma PK of oral immunosuppressant/oncology drugs alone vs with i.v. rezafungin; settings: for AUC0–t, geometric mean ratio (drug + rezafungin / drug alone) / AUC0–∞, geometric mean ratio (drug + rezafungin / drug alone) / Cmax, geometric mean ratio (drug + rezafungin / drug alone): rezafungin 200 mg i.v., geometric LSM ratio x 100, ANOVA; for AUC0–t, geometric mean ratio (drug + rezafungin / drug alone) / AUC0–∞, geometric mean ratio (drug + rezafungin / drug alone) / Cmax, geometric mean ratio (drug + rezafungin / drug alone) / Magnitude of decrease in Cmax with rezafungin vs drug alone: mycophenolic acid analyte for mycophenolate mofetil
# Experimental: (§1) Both were phase 1, single-center, open-label, crossover inpatient studies that were conducted in the United States in healthy adults (study 1, aged 26 to 55 years; study 2, aged 21 to 59 years). The studies were compliant with the International Council for Harmonisation of Technical Requirements for Pharmaceuticals for Human Use E6 guideline for good clinical practice ([54]) and the Declaration of Helsinki. The study protocols were approved by the institutional review board associated with the study site, and all subjects provided written informed consent.
# (§2) After screening, subjects were admitted to the CRU on day −17 (prior to the first rezafungin dose) and were discharged on day 22. Rezafungin was dosed via i.v. infusion over 1 h at 400 mg on day 1 and 200 mg on day 8 and day 15. The oral drugs to be tested for interactions were each administered twice on a schedule designed to allow washout between doses: once alone and once while receiving rezafungin (Fig. 4B). The total duration of treatment was approximately 84 days, which included 45 days of screening and 39 days of treatment in the CRU.
# (§3) In study 1, predose PK blood samples were collected on each dosing day ≤60 min prior to the administration of the substrate drugs with or without rezafungin. Multiple blood samples were collected relative to each dose, with collection times ranging from 15 min to 168 h postdose, depending on the PK profile of each probe substrate drug (Table S5). For study 2, multiple blood samples were collected, and the timing of collection varied according to the PK profile of each coadministered drug from predose to 96 h postdose (Table S6). PK blood samples were collected for rezafungin at sample times ranging from predose to 168 h postdose.
# (§4) For both studies, validated liquid chromatography-tandem mass spectrometry (LC-MS/MS) methods were used for PK assessments to analyze the concentrations of rezafungin and coadministered drugs. All plasma concentrations and actual blood sampling times were subjected to noncompartmental PK analysis. PK parameter calculations were performed using noncompartmental analysis (NCA) (Phoenix WinNonlin version 8.0 or higher). The PK parameters analyzed included Cmax; the time to reach the maximum observed plasma concentration (Tmax); AUC0–t (using the log-linear trapezoidal rule, where t was the last time point with a measurable concentration); AUC0–∞ (calculated as AUC0–t + Clast/λz); the AUC from 0 to 168 h (AUC0–168); the percentage of AUC0–∞ extrapolated (AUC%Extrap); the terminal elimination rate constant, determined by linear regression of the terminal linear segment of the log concentration-versus-time curve (λz); and the elimination half-life (t1/2), calculated as ln(2)/λz.
# (§5) The primary analysis of the drug interaction effect on substrate drugs following rezafungin administration was assessed by the ratio of the geometric least-squares (LS) mean of each substrate drug administered with rezafungin to that without rezafungin. […] PK parameters were statistically analyzed using an analysis of variance (ANOVA) model. […] However, noncompliance with these no-effect boundaries was not considered evidence of a significant DDI. Statistical analyses were performed using SAS (version 9.4) and the mixed procedure. Adverse events were descriptively summarized.
# [2] = clinical study, U.S. prescribing information; cited from earlier work
# [3] = Study 2 safety and tolerability (TEAEs); settings: Study 2; one subject each
# Experimental: as §2
# In both studies, the safety population included all subjects who received any amount of the study drug. In study 1, the rezafungin safety population included all subjects who received any amount of rezafungin. Safety assessments included vital signs (temperature, heart rate, blood pressure, and respiratory rate), safety laboratory evaluations (hematology assessment, serum chemistry panel, and urinalysis), physical examinations (complete and symptom directed), and EKGs.
# Microbiology Spectrum Supplementary materials
# Abbreviations: TEAE = treatment-emergent adverse event.
# N = number of subjects in the safety population; n = number of subjects in a sample.
# Notes: Each TEAE was counted only once for each subject within each System Organ Class and Preferred Term.
# [4] = Experimental: as §1
# After screening, subjects were admitted to the clinical research unit (CRU) prior to the first dose of rezafungin (from day −22) and were discharged from the CRU on day 22. Nine oral substrate drugs were administered as part of a cocktail containing two or more drugs once before and once after receiving rezafungin on a schedule designed to allow the washout of the drugs in the cocktail between doses and limit interactions with other drugs (Fig. 4A). […] A loading dose of rezafungin for injection (600 mg) was administered over 1 h on day 1, followed by two once-weekly 400-mg doses over 1 h on days 10 and 15. Due to a short delay in the availability of the investigation study drug, the second once-weekly dose of rezafungin and the second set of oral substrate drugs were administered on day 10 instead of day 8, although the time between doses remained sufficient for all originally planned PK samplings through 96 h postdose and for the adequate washout of the substrate drugs. The total duration of treatment was up to 89 days, including 45 days of screening and 44 days of treatment in the CRU.
# as §3, §4, §5
# [5] = Study 2, healthy subjects, oral cyclosporine 200 mg, ibrutinib 280 mg or mycophenolate mofetil 500 mg (analyte mycophenolic acid) without rezafungin, plasma, LC-MS/MS, NCA
# [6] = Study 2, healthy subjects, oral ibrutinib 280 mg (day 8) or mycophenolate mofetil 500 mg (day 15, cohort 1; analyte mycophenolic acid) with i.v. rezafungin 200 mg, plasma, LC-MS/MS, NCA
# [7] = Study 2, from geometric mean ratio
# [8] = Study 2, healthy subjects (cohort 2), oral venetoclax 50 mg with i.v. rezafungin 200 mg (day 15), plasma, LC-MS/MS, NCA
# [9] = Study 2, healthy subjects (cohort 2), oral venetoclax 50 mg without rezafungin, plasma, LC-MS/MS, NCA
# [10] = Study 1, healthy subjects, oral metformin 500 mg, pitavastatin 2 mg (day 10) or caffeine 100 mg, efavirenz 50 mg, midazolam 2 mg, digoxin 0.25 mg (day 15) with i.v. rezafungin 400 mg, plasma, LC-MS/MS, NCA
# [11] = Study 1, healthy subjects, oral repaglinide 1 mg, metformin 500 mg, pitavastatin 2 mg, caffeine 100 mg, efavirenz 50 mg, midazolam 2 mg or digoxin 0.25 mg without rezafungin, plasma, LC-MS/MS, NCA
# [12] = Study 1, rezafungin 400 mg i.v. (day 10 or 15), geometric LSM ratio x 100, ANOVA
compound,measurement,setting,value
COc1c(C)c2c(c(O)c1C/C=C(\C)CCC(=O)OCCN1CCOCC1)C(=O)OC2 [Mycophenolate mofetil],"AUC0–t, geometric LSM value, alone",[1]; [5],"25,299.70 ng · h/mL"
same,"AUC0–∞, geometric LSM value, alone",[1]; [5],"27,954.20 ng · h/mL"
same,"Cmax, geometric LSM value, alone",[1]; [5],"9,541.20 ng/mL"
same,"AUC0–t, geometric LSM value, + rezafungin",[1]; [6],"25,054.90 ng · h/mL"
same,"AUC0–∞, geometric LSM value, + rezafungin",[1]; [6],"28,257.00 ng · h/mL"
same,"Cmax, geometric LSM value, + rezafungin",[1]; [6],"7,740.58 ng/mL"
same,"Observation, AUC (change with rezafungin relative to drug alone)","[1]; Study 2, class symbol, AUC0–t and AUC0–∞ unless otherwise noted","↔ (no change (the ratio of the PK parameter value varied by up to ~10%, and the 90% CI was within 80 to 125%))"
same,"AUC0–t, geometric mean ratio (drug + rezafungin / drug alone)",[1]; Study 2,99.03%
same,"AUC0–∞, geometric mean ratio (drug + rezafungin / drug alone)",[1]; Study 2,101.08%
same,"Cmax, geometric mean ratio (drug + rezafungin / drug alone)",[1]; Study 2,81.13%
Caspofungin,increase in AUC of caspofungin by cyclosporine,[2],approximately 35%
same,reduction of trough concentrations of caspofungin by rifampicin,[2],30%
COc1c(C)c2c(c(O)c1C/C=C(\C)CCC(=O)O)C(=O)OC2 [Mycophenolic acid],Magnitude of decrease in Cmax with rezafungin vs drug alone,[1]; [7],19%
CC1(C)CCC(CN2CCN(c3ccc(C(=O)NS(=O)(=O)c4ccc(NCC5CCOCC5)c([N+](=O)[O-])c4)c(Oc4cnc5[nH]ccc5c4)c3)CC2)=C(c2ccc(Cl)cc2)C1 [Venetoclax],severe TEAE deemed by the investigator to be related to the drug,[3],abdominal pain
same,"AUC0–t, geometric LSM value, + rezafungin",[1]; [8],"2,693.83 pg · h/mL"
same,"AUC0–∞, geometric LSM value, + rezafungin",[1]; [8],"2,781.57 pg · h/mL"
same,"AUC0–t, geometric LSM value, alone",[1]; [9],"3,004.70 pg · h/mL"
same,"AUC0–∞, geometric LSM value, alone",[1]; [9],"3,082.58 pg · h/mL"
same,Magnitude of decrease in AUC with rezafungin vs drug alone,"[1]; Study 2, AUC0–t and AUC0–∞, from geometric mean ratio",~10%
same,"Observation, Cmax (change with rezafungin relative to drug alone)","[1]; Study 2, class symbol","↔ (no change (the ratio of the PK parameter value varied by up to ~10%, and the 90% CI was within 80 to 125%))"
same,"AUC0–t, geometric mean ratio (drug + rezafungin / drug alone)",[1]; Study 2,89.65%
same,"AUC0–∞, geometric mean ratio (drug + rezafungin / drug alone)",[1]; Study 2,90.24%
same,"Cmax, geometric mean ratio (drug + rezafungin / drug alone)",[1]; Study 2,94.84%
C=CC(=O)N1CCC[C@@H](n2nc(-c3ccc(Oc4ccccc4)cc3)c3c(N)ncnc32)C1 [Ibrutinib],Magnitude of decrease in Cmax with rezafungin vs drug alone,[1]; [7],~17%
Cn1c(=O)c2c(ncn2C)n(C)c1=O [Caffeine],"AUC0–t, geometric LSM value, + rezafungin",[4]; [10],"18,475.36 ng · h/mL"
same,"AUC0–∞, geometric LSM value, + rezafungin",[4]; [10],"20,853.11 ng · h/mL"
same,"Cmax, geometric LSM value, + rezafungin",[4]; [10],"2,232.88 ng/mL"
same,"AUC0–t, geometric LSM value, alone",[4]; [11],"17,230.22 ng · h/mL"
same,"AUC0–∞, geometric LSM value, alone",[4]; [11],"18,897.70 ng · h/mL"
same,"Cmax, geometric LSM value, alone",[4]; [11],"2,075.44 ng/mL"
same,Change in exposure of the oral probe drug on coadministration of i.v. rezafungin vs dosing alone,"[4]; Study 1, 90% CIs of GMRs of Cmax, AUC0–t, AUC0–∞ within 80 to […]",did not result in statistically significant changes
same,"Observation, Cmax (change with rezafungin relative to drug alone)","[4]; Study 1, class symbol","↔ (no change (the ratio of the PK parameter value varied by up to ~10%, and the 90% CI was within 80 to 125%))"
same,"Observation, AUC (change with rezafungin relative to drug alone)","[4]; Study 1, class symbol, AUC0–t and AUC0–∞ unless otherwise noted","↔ (no change (the ratio of the PK parameter value varied by up to ~10%, and the 90% CI was within 80 to 125%))"
same,"AUC0–t, geometric mean ratio (drug + rezafungin / drug alone)",[4]; [12],107.23%
same,"AUC0–∞, geometric mean ratio (drug + rezafungin / drug alone)",[4]; [12],110.35%
same,"Cmax, geometric mean ratio (drug + rezafungin / drug alone)",[4]; [12],107.59%

# Source: publication PMC10269561, “Absence of Clinically Meaningful Drug-Drug Interactions with Rezafungin: Outcome of Investigations” (Microbiology Spectrum, 2023)
